How the values were obtained:
[1] = system: RPE-Neo or RPE-MYC or RPE-MYC expressing an EGFP-Histone 2B fusion protein; test: MTT assays of cellular proliferation; format: cell-based; conditions: Homo sapiens, min. effective conc., read-out: Proliferative arrest (<50%)
[2] = system: RPE-Neo or RPE-MYC or RPE-MYC expressing an EGFP-Histone 2B fusion protein; test: Phenotypic screening assay (arrest in mitosis, change in DNA content, cell death; GE IN-Cell Analyzer 2000); format: cell-based; conditions: Homo sapiens, compounds 20 nM to 20 μM, 24, 48 or 72 hours
[3] = read-out: Min. Effective conc. for Polyploidy (≥10%)
[4] = min. effective conc., read-out: Cell Death (>30%)
[5] = min. effective conc., read-out: Mitotic Arrest (≥10%)

## CNC(=O)C1=C(O)c2ccc(-c3cnn(C)c3)cc2N(Cc2ccc(C)c(F)c2)C(=O)C1 [Example 138, 1-(3-fluoro-4-methylbenzyl)-5-hydroxy-N-methyl-8-(1-methyl-1H-pyrazol-4-yl)-2-oxo-2,3-dihydro-1H-benzo[b]azepine-4-carboxamide]
[1]
  minimal effective concentration: 1 to 10 µM
[2]; [3]
  minimal effective concentration: 1 to 10 µM
[2]; [4]
  minimal effective concentration: 1 to 10 µM
[2]; [5]
  minimal effective concentration: 1 to 10 µM

## CNC(=O)C1=C(O)c2ccc(C#N)cc2N(Cc2ccc(C)c(F)c2)C(=O)C1 [Example 139]
[1]
  minimal effective concentration: 1 to 10 µM
[2]; [3]
  minimal effective concentration: 1 to 10 µM
[2]; [4]
  minimal effective concentration: 1 to 10 µM
[2]; [5]
  minimal effective concentration: 1 to 10 µM

## COc1ccc2c(c1)N(Cc1ccc(C)c(F)c1)C(=O)CC(C(=O)C1CC1)=C2O [Example 141, 4-(cyclopropanecarbonyl)-1-(3-fluoro-4-methylbenzyl)-5-hydroxy-8-methoxy-1,3-dihydro-2H-benzo[b]azepin-2-one]
[1]
  minimal effective concentration: 0.001 to 1 µM
[2]; [3]
  minimal effective concentration: 0.001 to 1 µM
[2]; [4]
  minimal effective concentration: 0.001 to 1 µM
[2]; [5]
  minimal effective concentration: 0.001 to 1 µM

Source: patent US20240270695A1, “COMPOUNDS, COMPOSITIONS AND METHODS OF TREATING DISORDERS” (Chengdu Anticancer Bioscience LTD, priority 2021, published 2024)
